Entries after “also recorded” stand apart in the source; their conditions may differ.
How the values were obtained:
[1] = system: ob/ob mice; assay: Long-term isoproterenol treatment of ob/ob mice; assay type: in vivo, mouse
Method: Wildtype (C57BL/6J) and mutant (C57BL/6J A^y/a, C57BL/6J ob/ob) mice were obtained from the Jackson laboratory and adrenal medullectomized mice from Harlan Tecklad laboratory. Dbh−/− mice were rescued as previously described (Thomas et al., 1998, Neurochem 70:2468-2476). […] Propranolol (Sigma) was added to the drinking water at a concentration of 0.5 g/l. For ICV infusion, a 28-gauge cannula (Brain infusion kit II, Alza) was implanted into the third ventricle as previously described infusing human leptin (Sigma) at 8 ng/hr or MT-II at 125 ng/hr (Phoenix Pharmaceuticals) for 28 days (see, e.g., Ducy et al., 2000, Cell 100: 197-207). The cannula was connected to an osmotic pump (Alza) placed in the dorsal subcutaneous space of the animal. For parabiosis longitudinal incisions were made in the skin and in the peritoneal cavity along one side on each mouse. Edges of the incisions were connected by suture to induce coelioanastomosis. Cross-circulation was quantified by injecting 1 ml/kg 0.25% Evans blue into the tail vein of one mouse of the parabiosed pair. After 30 min. blood was collected from both mice by retroorbital bleeding and the blood exchange rate was calculated according to standard techniques (see, e.g., Harris & Martin, 1984, Am J Physiol 247:R380-386). […] Two weeks after parabiosis a pump delivering leptin ICV in one animal of each pair was implanted. For GTG lesioning, 4-week-old C57BL/6J mice were given a single ip injection of either PBS or GTG (0.5 mg/g). For MSG lesioning, 2 day-old C57BL/6J pups were injected daily subcutaneously with either PBS or MSG (2 mg/g) for 10 days.
Histological analyses were performed on undecalcified sections stained by von Kossa and counterstained by von Gieson (see, e.g., Ducy et al., 2000, Cell 100:197-207). Static and dynamic histomorphometric analyses were performed according to standard protocols (see, e.g., Parfitt et al., 1987, J Bone Miner Res 6:595-610) using the Osteomeasure Analysis System (Osteometrics, Atlanta). Six to 12 animals were analyzed for each group. Statistical significance was assessed by Student's t test.
Primary osteoblast cultures were established as previously described (see, e.g., Ducy et al., 2000, Cell 100: 197-207) and maintained in αMEM/0.1 mg/ml ascorbic acid supplemented with 10% FBS. SaOS-2 were grown in MEM/10% FBS. For cAMP assay confluent cultures were incubated with serum free medium containing 100 μM IBMX (3-isobutyl-1-methylxanthine, Sigma) for 8 minutes before PBS, PTH(1-34) (Bachem), isoproterenol, norepinephrine, phenylephrine (Sigma) or propranolol were added for 5 min. Intracellular cAMP concentration was measured by immunoassay (R&D Systems). For gene expression analyses, primary osteoblasts were treated for 72 hours with appropriate drugs in 0.1% FBS. Hormone serum levels were quantified using immunoassays kits from Peninsula Laboratories (Insulin) or Alpco Diagnostics (leptin). Deoxypyridinoline cross-links and Creatinine were measured in morning urines using the Quidel kits. a1(I) leptin bioactivity was verified by cotransfection of 293 cells expressing ObRb with a STAT3-responsive-luc reporter construct, pSVβgal plasmid and a1(I) leptin expression vector or mock. Twenty-four hours later luciferase and β-galactosidase activities were measured. Data represents ratios of luciferase/β-galactosidase activities, and values are mean of 6 independent transfection experiments.
To address this point one month-old ob/ob mice were treated for 6 weeks with the β-adrenergic agonist isoproterenol or vehicle.

[2] = system: A^y/a mice; assay: Leptin ICV infusion in A^y/a mice; assay type: in vivo, mouse
Method: Wildtype (C57BL/6J) and mutant (C57BL/6J A^y/a, C57BL/6J ob/ob) mice were obtained from the Jackson laboratory and adrenal medullectomized mice from Harlan Tecklad laboratory. Dbh−/− mice were rescued as previously described (Thomas et al., 1998, Neurochem 70:2468-2476). Isoproterenol (Sigma) was injected intraperitoneally (ip) once daily for 6 weeks at 30 mg/kg (wt) or 3 mg/kg (ob/ob). Propranolol (Sigma) was added to the drinking water at a concentration of 0.5 g/l. For ICV infusion, a 28-gauge cannula (Brain infusion kit II, Alza) was implanted into the third ventricle as previously described infusing human leptin (Sigma) at 8 ng/hr or MT-II at 125 ng/hr (Phoenix Pharmaceuticals) for 28 days (see, e.g., Ducy et al., 2000, Cell 100: 197-207). The cannula was connected to an osmotic pump (Alza) placed in the dorsal subcutaneous space of the animal. For parabiosis longitudinal incisions were made in the skin and in the peritoneal cavity along one side on each mouse. Edges of the incisions were connected by suture to induce coelioanastomosis. Cross-circulation was quantified by injecting 1 ml/kg 0.25% Evans blue into the tail vein of one mouse of the parabiosed pair. After 30 min. blood was collected from both mice by retroorbital bleeding and the blood exchange rate was calculated according to standard techniques (see, e.g., Harris & Martin, 1984, Am J Physiol 247:R380-386). […] Two weeks after parabiosis a pump delivering leptin ICV in one animal of each pair was implanted. For GTG lesioning, 4-week-old C57BL/6J mice were given a single ip injection of either PBS or GTG (0.5 mg/g). For MSG lesioning, 2 day-old C57BL/6J pups were injected daily subcutaneously with either PBS or MSG (2 mg/g) for 10 days.

[3] = ob/ob mice, 3 mg/kg/day, 6 weeks

`CC(C)NCC(O)c1ccc(O)c(O)c1` (centres unmarked) [isoproterenol] was tested, and the “Bone Volume” value ([1]; ob/ob + isoproterenol) was “Low”, the “expression of uncoupling protein 1 (Ucp1) in brown adipose tissue” value ([1]; ob/ob mice) was “increased” and the bone formation rate [1, 3] was “marked decrease”. The bone resorption parameters [1, 3] was “unaffected”, the “number of osteoblasts per bone surface” value [1, 3] was “marked decrease” and the “bone mass and bone formation parameters compared with 3 mg/kg/day” value ([1]; ob/ob mice, 10 mg/kg/day) was “Identical results”. For the same molecule, the body weight ([1]; ob/ob mice, 3 and 10 mg/kg/day) was “without affecting” and the “bone mass in the vertebrae and long bones” value ([1]; one month-old ob/ob mice, 3 mg/kg/day ip, 6 weeks) was “massive bone loss”.

B1: leptin: polypeptide hormone, product of the ob gene; human leptin (Sigma) infused ICV (protein)
chain: VPIQKVQDDTKTLIKTIVTRINDISHTQSVSAKQRVTGLDFIPGLHPILSLSKMDQTLAVYQQVLTSLPSQNVLQIANDLENLRDLLHLLAFSKSCSLPQTSGLQKPESLDGVLEASLYSTEVVALSRLQGSLQDILQQLDVSPEC
With B1 the body weight ([2]; ICV infusion) was “without affecting”, the bone formation rate ([2]; long-term ICV infusion) was “decrease” and the “bone mass / bone volume” value ([2]; long-term ICV infusion) was “significant decrease; also recorded: decreased”.

— patent US20060165683A1, “Methods and compositions for control of bone formation via modulation of sympathetic tone” (priority 2001, published 2006)
